From the NIST ThermoML archive (doi:10.1016/j.jct.2014.07.026)

Assay: mn = molality of the nth substance listed, in mol/kg
Settings: 100 kPa, Liquid; for mass density: Vibrating tube method; for speed of sound: Frequency=2 MHz, Linear variable-path acoustic interferometer

CCCCn1cc[n+](C)c1.CC[C@H](C)[C@H](N)C(=O)[O-] [1-butyl-3-methyl-1H-imidazolium L-isoleucinate] + O
Settings | mass density [kg/m3] | speed of sound [m/s]
293.15 K, m1 = 0.02906 | 999.041 | –
293.15 K, m1 = 0.04398 | 999.456 | –
293.15 K, m1 = 0.05752 | 999.834 | –
293.15 K, m1 = 0.0722 | 1000.24 | –
293.15 K, m1 = 0.07899 | 1000.43 | –
293.15 K, m1 = 0.1182 | 1001.49 | –
293.15 K, m1 = 0.1456 | 1002.23 | –
293.15 K, m1 = 0.1662 | 1002.78 | –
293.15 K, m1 = 0.1765 | 1003.05 | –
293.15 K, m1 = 0.2502 | 1004.97 | –
293.15 K, m1 = 0.2937 | 1006.09 | –
293.15 K, m1 = 0.3356 | 1007.15 | –
293.15 K, m1 = 0.3802 | 1008.26 | –
298.15 K, m1 = 0.02906 | 997.851 | –
298.15 K, m1 = 0.04398 | 998.255 | –
298.15 K, m1 = 0.0472 | – | 1507.8
298.15 K, m1 = 0.05752 | 998.616 | –
298.15 K, m1 = 0.0722 | 999.019 | –
298.15 K, m1 = 0.07899 | 999.193 | –
298.15 K, m1 = 0.1029 | – | 1519.2
298.15 K, m1 = 0.1182 | 1000.22 | –
298.15 K, m1 = 0.1456 | 1000.93 | –
298.15 K, m1 = 0.1481 | – | 1528.4
298.15 K, m1 = 0.1662 | 1001.47 | –
298.15 K, m1 = 0.1765 | 1001.73 | –
298.15 K, m1 = 0.1974 | – | 1538.3
298.15 K, m1 = 0.2422 | – | 1547.2
298.15 K, m1 = 0.2502 | 1003.6 | –
298.15 K, m1 = 0.2927 | – | 1557.1
298.15 K, m1 = 0.2937 | 1004.66 | –
298.15 K, m1 = 0.3356 | 1005.72 | –
298.15 K, m1 = 0.3455 | – | 1567.6
298.15 K, m1 = 0.3802 | 1006.75 | –
298.15 K, m1 = 0.3987 | – | 1578.2
298.15 K, m1 = 0.4518 | – | 1588.5
298.15 K, m1 = 0.5064 | – | 1599.2
303.15 K, m1 = 0.02906 | 996.433 | –
303.15 K, m1 = 0.04398 | 996.821 | –
303.15 K, m1 = 0.05752 | 997.168 | –
303.15 K, m1 = 0.0722 | 997.554 | –
303.15 K, m1 = 0.07899 | 997.73 | –
303.15 K, m1 = 0.1182 | 998.731 | –
303.15 K, m1 = 0.1456 | 999.436 | –
303.15 K, m1 = 0.1662 | 999.965 | –
303.15 K, m1 = 0.1765 | 1000.2 | –
303.15 K, m1 = 0.2502 | 1002 | –
303.15 K, m1 = 0.2937 | 1003.05 | –
303.15 K, m1 = 0.3356 | 1004.06 | –
303.15 K, m1 = 0.3802 | 1005.08 | –
308.15 K, m1 = 0.03034 | 994.828 | –
308.15 K, m1 = 0.0467 | 995.242 | –
308.15 K, m1 = 0.05983 | 995.575 | –
308.15 K, m1 = 0.07535 | 995.962 | –
308.15 K, m1 = 0.09204 | 996.388 | –
308.15 K, m1 = 0.121 | 997.102 | –
308.15 K, m1 = 0.1452 | 997.702 | –
308.15 K, m1 = 0.1832 | 998.629 | –
308.15 K, m1 = 0.2191 | 999.468 | –
308.15 K, m1 = 0.2631 | 1000.51 | –
308.15 K, m1 = 0.2977 | 1001.31 | –
308.15 K, m1 = 0.3367 | 1002.21 | –
308.15 K, m1 = 0.3802 | 1003.17 | –
313.15 K, m1 = 0.03034 | 992.995 | –
313.15 K, m1 = 0.0467 | 993.401 | –
313.15 K, m1 = 0.05983 | 993.731 | –
313.15 K, m1 = 0.07535 | 994.106 | –
313.15 K, m1 = 0.09204 | 994.515 | –
313.15 K, m1 = 0.121 | 995.217 | –
313.15 K, m1 = 0.1452 | 995.792 | –
313.15 K, m1 = 0.1832 | 996.685 | –
313.15 K, m1 = 0.2191 | 997.538 | –
313.15 K, m1 = 0.2631 | 998.53 | –
313.15 K, m1 = 0.2977 | 999.299 | –
313.15 K, m1 = 0.3367 | 1000.18 | –
313.15 K, m1 = 0.3802 | 1001.15 | –
